Data set [1] deals with MATE2-K (multidrug and toxin extrusion protein 2) (Homo sapiens (Human), UniProt Q86VL8). The experiment in a line: MATE2-K IC50 assay (14C-metformin uptake in transfected MDCK-II cells). The class given is in vitro ADME. As to the method: MATE2-K (multidrug and toxin extrusion protein 2) is expressed in the apical membrane in the kidney and mediates the elimination of compounds to urine. MDCK-II cells were maintained in DMEM with low glucose and 10% FBS. Cells passages up to 40 were seeded at 60K±10K cells/well on 96-well, transwell membrane plates approximately 24 hours before transfection. Transport assays were carried out approximately 48 hours after transfection. […]. The assay plate was then placed in a 37° C. incubator with orbital shaking at approximately 60 RPM for the pre-incubation time of 15 minutes. […]. The assay plate was incubated at 37° C. with orbital shaking at approximately 60 RPM for the incubation time of 5 minutes. At end of the 5-minute incubation, 15 μL of dosing solution was removed from each well containing the compound being tested and measured using LC/MS/MS for dose recovery assessment. The assay wells were then washed four times with ice cold PBS. 60 μL cell extraction solution was added to each well and the plate was incubated at 37° C. with orbital shaking at approximately 60 RPM for the 15 minutes. After this incubation, 30 μL was removed from each well, added to 200 μL scintillation fluid, and counted on a 1450 Microbeta (Perkin-Elmer) to measure the probe substrate uptake. Inhibition potential of the compound being tested was calculated by dividing the transporter-mediated uptake rate in presence of the compound being tested or the reference inhibitor by the transporter-mediated uptake rate in presence of vehicle control and fitted to a sigmoidal function to determine the IC50 values.
Chain of MATE2-K (multidrug and toxin extrusion protein 2) (Q86VL8 other isoform, or with tags, fused parts or gaps, species assumed): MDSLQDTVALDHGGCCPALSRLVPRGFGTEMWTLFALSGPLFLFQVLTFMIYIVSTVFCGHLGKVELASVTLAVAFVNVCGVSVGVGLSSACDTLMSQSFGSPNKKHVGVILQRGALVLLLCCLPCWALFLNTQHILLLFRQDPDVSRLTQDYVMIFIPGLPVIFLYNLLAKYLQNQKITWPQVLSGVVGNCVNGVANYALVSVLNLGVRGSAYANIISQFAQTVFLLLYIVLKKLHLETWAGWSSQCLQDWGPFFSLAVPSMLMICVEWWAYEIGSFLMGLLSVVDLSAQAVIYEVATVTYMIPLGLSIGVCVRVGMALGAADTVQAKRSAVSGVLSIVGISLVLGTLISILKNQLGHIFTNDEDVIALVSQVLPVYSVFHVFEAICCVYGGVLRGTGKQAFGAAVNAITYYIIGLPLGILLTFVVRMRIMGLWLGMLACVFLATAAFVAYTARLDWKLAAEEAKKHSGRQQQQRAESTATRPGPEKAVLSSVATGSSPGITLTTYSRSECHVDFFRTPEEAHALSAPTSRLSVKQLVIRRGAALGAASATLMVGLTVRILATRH

For the next data set, the target named is TLR8 (Homo sapiens (Human), UniProt Q9NR97). The experiment in a line: TLR8 human peripheral blood mononuclear cell (PBMC) cell-based assay (Compound A as agonist; TNFα and IL12p40 readout). Conditions: human PBMCs, TLR8 agonist Compound A at 800 nM, 6 hours, antagonist potency; read-out: TLR-8 EC50.
Chain of TLR8 (Q9NR97 27-1041): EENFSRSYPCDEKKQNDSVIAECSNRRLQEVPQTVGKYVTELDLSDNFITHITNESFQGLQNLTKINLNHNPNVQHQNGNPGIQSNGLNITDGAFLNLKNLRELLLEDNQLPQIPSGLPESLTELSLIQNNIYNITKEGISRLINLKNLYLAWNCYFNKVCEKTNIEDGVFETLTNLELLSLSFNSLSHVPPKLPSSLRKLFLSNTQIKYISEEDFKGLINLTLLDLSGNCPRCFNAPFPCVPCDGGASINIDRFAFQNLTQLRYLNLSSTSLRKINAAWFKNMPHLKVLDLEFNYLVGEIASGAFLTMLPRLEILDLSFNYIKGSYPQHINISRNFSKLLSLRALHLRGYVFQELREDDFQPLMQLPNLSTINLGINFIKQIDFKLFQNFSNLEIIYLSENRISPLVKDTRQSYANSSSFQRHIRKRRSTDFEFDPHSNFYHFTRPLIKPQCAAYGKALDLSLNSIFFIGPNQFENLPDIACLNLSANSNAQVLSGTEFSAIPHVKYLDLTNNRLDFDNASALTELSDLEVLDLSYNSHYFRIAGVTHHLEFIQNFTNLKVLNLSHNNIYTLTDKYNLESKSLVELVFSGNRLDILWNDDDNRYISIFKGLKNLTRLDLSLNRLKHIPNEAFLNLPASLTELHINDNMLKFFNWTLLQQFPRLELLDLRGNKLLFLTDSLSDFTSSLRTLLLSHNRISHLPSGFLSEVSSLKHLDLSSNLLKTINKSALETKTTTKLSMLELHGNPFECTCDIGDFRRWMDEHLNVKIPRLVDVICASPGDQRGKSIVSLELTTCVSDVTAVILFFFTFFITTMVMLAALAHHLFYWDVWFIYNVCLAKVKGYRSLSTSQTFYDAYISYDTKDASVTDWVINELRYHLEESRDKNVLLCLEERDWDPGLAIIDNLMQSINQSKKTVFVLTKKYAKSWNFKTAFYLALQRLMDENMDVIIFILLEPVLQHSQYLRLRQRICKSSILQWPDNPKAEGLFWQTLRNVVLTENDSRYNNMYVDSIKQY
Data set [2] in a line: Kinetic solubility at pH 7.4. Conditions: 1×PBS buffer (pH 7.4), 22.8 °C, pH 7.4, aqueous buffer, kinetic from dmso stock.
Protocol: Kinetic Solubility at pH 7.4
The final DMSO Concentration was 1.0% and maximum theoretical compound concentration is 100 μM. The filter plate was sealed. […] The collection plate was sealed for analysis.
Filtrates were injected into the nitrogen detector for quantification on Analiza's Automated Discovery Workstation. The results are reported in μg/ml.
The filtrates were quantified with respect to this calibration curve. The calculated solubility values were corrected for background nitrogen present in the DMSO, and the media used to prepare the samples.
The 1×PBS buffer (pH 7.4) was prepared by adding 50 mL of phosphate buffered saline solution 10×, PBS (Fisher Bioreagent part number BP399-500) to approximately 450 mL HPLC grade H2O. The volume of the solution was then adjusted to 500 mL for a total dilution factor of 1:10 and a final PBS concentration of 1×. The pH of the final solution was measured and found to be 7.4.
Each compound tested was analyzed as a trifluoroacetate salt.
In a further data set the target is TLR7 (Homo sapiens (Human), UniProt Q9NYK1). The experiment in a line: TLR7 human peripheral blood mononuclear cell (PBMC) cell-based assay (GS-986 as agonist; IL-6 and IFNα readout). Conditions: human PBMCs, TLR7 agonist GS-986 at 400 nM, 6 hours, antagonist potency; read-out: TLR-7 EC50. The method in brief: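 Human PBMCs (100,000 cells/well) preincubated 1 h at 37 °C with antagonist in 10-point dose response, then stimulated with TLR7 agonist for a further 6 h at 37 °C, 5% CO2. Supernatant IL-6 and IFNα measured by electrochemiluminescence immunoassay.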
Chain of TLR7 (Q9NYK1 27-1049): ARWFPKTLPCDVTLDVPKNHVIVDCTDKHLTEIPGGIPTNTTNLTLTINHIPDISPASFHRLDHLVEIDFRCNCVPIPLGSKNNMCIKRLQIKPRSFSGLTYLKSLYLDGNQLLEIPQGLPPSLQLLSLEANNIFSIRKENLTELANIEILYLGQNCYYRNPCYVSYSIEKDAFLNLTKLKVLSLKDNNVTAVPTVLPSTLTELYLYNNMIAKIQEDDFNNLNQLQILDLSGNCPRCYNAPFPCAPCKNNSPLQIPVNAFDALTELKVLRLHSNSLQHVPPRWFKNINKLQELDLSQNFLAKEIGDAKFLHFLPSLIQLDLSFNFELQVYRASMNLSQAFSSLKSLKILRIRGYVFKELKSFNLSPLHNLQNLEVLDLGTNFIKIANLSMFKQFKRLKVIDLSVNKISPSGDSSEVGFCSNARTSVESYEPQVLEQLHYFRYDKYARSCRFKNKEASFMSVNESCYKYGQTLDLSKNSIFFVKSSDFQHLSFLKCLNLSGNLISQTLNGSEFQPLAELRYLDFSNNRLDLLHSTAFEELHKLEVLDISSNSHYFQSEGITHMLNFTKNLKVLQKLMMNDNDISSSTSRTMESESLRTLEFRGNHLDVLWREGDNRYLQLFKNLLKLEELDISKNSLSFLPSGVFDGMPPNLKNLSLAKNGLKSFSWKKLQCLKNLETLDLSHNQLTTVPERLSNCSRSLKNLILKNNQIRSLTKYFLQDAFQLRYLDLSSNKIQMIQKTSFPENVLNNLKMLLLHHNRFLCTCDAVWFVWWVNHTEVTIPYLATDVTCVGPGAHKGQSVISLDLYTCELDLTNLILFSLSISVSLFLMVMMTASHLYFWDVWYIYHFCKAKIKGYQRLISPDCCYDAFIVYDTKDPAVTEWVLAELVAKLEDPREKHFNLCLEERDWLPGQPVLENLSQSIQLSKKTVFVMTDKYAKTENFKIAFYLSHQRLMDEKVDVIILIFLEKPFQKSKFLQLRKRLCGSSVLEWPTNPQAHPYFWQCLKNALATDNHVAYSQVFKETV

Data set [3] has as its system cryopreserved hepatocytes. The experiment in a line: Human hepatic stability in cryopreserved hepatocytes. Conditions: 1×10^6 cells/mL, aliquots at 0, 1, 3 and 6 hours, LC-MS/MS.
Protocol: Each tested compound was incubated in suspensions of cryopreserved hepatocytes at a final concentration of 1 μM. Vials containing cryopreserved hepatocytes were removed from liquid nitrogen and immediately immersed in a 37° C. water bath. The vials were swirled gently until the contents had thawed. They were then immediately emptied into 48 mL of pre-warmed HT medium in a 50 mL conical tube. Cells remaining in the vial were resuspended with 1.0 mL of pre-warmed HT medium and added to the conical tube. The tube was capped and then gently inverted several times to re-suspend the hepatocytes. The cell suspension was centrifuged at 500×g for 10 minutes at room temperature and the supernatant discarded. The cell pellet was loosened by gently swirling the centrifuge tube. Non-supplemented KHB medium was added to obtain the appropriate target cell density.
For incubations, aliquots of hepatocyte suspension (250 mL at a concentration of 2×10^6 cells/mL) were added to 250 mL of 2 mM of each tested compound in KHB, in duplicate wells in a 24-well plate. Final concentration in the incubations were 1×10^6 cells/mL and 1 mM of each tested compound. […] A cell-free control was also tested in parallel with the incubations. The incubations were carried out with gentle shaking in a 37° C. incubator under a humid atmosphere of 95% air/5% CO2 (v/v). Aliquots (100 mL) were removed after 0, 1, 3, and 6 hours and added to 200 mL IS/Q. The samples were then placed on a shaker for 10 min followed by centrifugation at 3000×g for 20 min. The supernatant was transferred to a new plate and diluted with 100 μL of water to reduce the organic solvent content and then placed on a shaker for 10 mins. Samples were injected and analyzed using LC-MS/MS.
Where [4] appears, read: transfected MDCK-II cells, 10 μM 14C-metformin probe substrate, read-out: MATE2-K IC50.

Each structure is given as a SMILES string. Converted amounts (≈) assume the structure as drawn. Where two headings read alike, the source gives them in different places.

As usually defined, the IC50 is the point on the concentration scale where inhibition reaches its midpoint. Broadly, the EC50 is the concentration that produces a half-maximal response. As a reminder, the kinetic solubility is the concentration staying in solution when a stock, usually in DMSO, is diluted into the medium.

`Cc1c(-c2[nH]c3sc([C@@H]4C[C@@H]5C[C@H]4CN5C(C)C(N)=O)c(C)c3c2C(C)C)cn2ncnc2c1C` (single isomer, unassigned) [Example 100]: in data set [1] (setting [4]), the IC50 turned out to be 9700 nM. Moreover, the EC50 turned out to be 0.71 nM on TLR8 and 0.32 nM on TLR7. This compound returned a solubility (kinetic) at 24 h in data set [2] of 23.5 µg/mL (≈ 47.9 µM).

As to `Cc1c(-c2[nH]c3sc(C4CCN(C(=O)[C@H]5COCCN5)CC4)c(C)c3c2C(C)C)cn2ncnc2c1C` [Example 56], the 50% inhibitory concentration (IC50) in data set [1] (setting [4]) amounted to 7700 nM. Also, the EC50 at TLR8 is 2.46 nM; on TLR7, 0.24 nM. In data set [3], the “Predicted Clearance” value is 4.17 mL/min/kg. This compound also yielded a solubility (kinetic) at 24 h in data set [2] of 26.5 µg/mL (≈ 50.9 µM).

In data set [1], `Cc1c(-c2[nH]c3sc(C4CCN(CC(N)=O)CC4)c(C)c3c2C(C)C)cn2ncnc2c1C` [Example 67] displayed an IC50 of 6200 nM. Moreover, the results for the EC50 at TLR8 and on TLR7 were 2.08 nM and 0.35 nM, respectively. Also, the “Predicted Clearance” value in data set [3] was 2.33 mL/min/kg. The kinetic solubility at 24 h in data set [2] came out at 16.8 µg/mL (≈ 36.2 µM).

`Cc1c(-c2[nH]c3sc([C@@H]4C[C@@H]5C[C@H]4CN5CC(N)=O)c(C)c3c2C(C)C)cn2ncnc2c1C` [Example 79, 2-((1S,4R,5R)-5-(5-(7,8-dimethyl-[1,2,4]triazolo[1,5-a]pyridin-6-yl)-4 isopropyl-3-methyl-6H-thieno[2,3-b]pyrrol-2-yl)-2-azabicyclo[2.2.1]heptan-2-yl)acetamide] came in with an IC50 in data set [1] of 8100 nM. Besides, the figures for the EC50 at TLR8 and at TLR7 were 0.23 nM and 0.12 nM, respectively. For the same compound, in data set [3], the “Predicted Clearance” value is 4.33 mL/min/kg. This compound also showed a solubility (kinetic) at 24 h in data set [2] of 21.5 µg/mL (≈ 45.1 µM).

With `CNC(=O)CN1C[C@@H]2C[C@H]1C[C@H]2c1sc2[nH]c(-c3cn4ncnc4c(C)c3C)c(C(C)C)c2c1C` [Example 82], the IC50 in data set [1] was greater than 14500 nM. Moreover, the EC50 worked out at 0.17 nM at TLR8 and 0.37 nM on TLR7.

Take `Cc1c(-c2[nH]c3sc([C@H]4C[C@H]5C[C@@H]4CN5CC(N)=O)c(C)c3c2C(C)C)cn2ncnc2c1C` [Example 84]: the figures for the EC50 at TLR8 and at TLR7 were 0.81 nM and 0.13 nM, respectively. Further, the “Predicted Clearance” value in data set [3] was 8.83 mL/min/kg.

With `Cc1c(-c2[nH]c3sc([C@@H]4C[C@@H]5C[C@H]4CN5CC(N)=O)cc3c2C(C)C)cn2ncnc2c1C` [Example 97], the EC50 came to 1.09 nM at TLR8 and 0.31 nM at TLR7. Also, the “Predicted Clearance” value in data set [3] is 13.5 mL/min/kg. The compound also had a kinetic solubility at 24 h in data set [2] of 22.8 µg/mL (≈ 49.3 µM).

For the compound `Cc1c(-c2[nH]c3sc(C4CCN(C(=O)[C@H]5CCCN5)CC4)c(C)c3c2C(C)C)cn2ncnc2c1C` [Example 98], the EC50 stood at 4.48 nM at TLR8 and 0.05 nM on TLR7. In addition, the “Predicted Clearance” value in data set [3] is 1.83 mL/min/kg. This compound also displayed a solubility (kinetic) at 24 h in data set [2] of 24.9 µg/mL (≈ 49.3 µM).

On to `Cc1c(-c2[nH]c3sc([C@@H]4C[C@@H]5C[C@H]4CN5Cc4cn(C)nn4)c(C)c3c2C(C)C)cn2ncnc2c1C` [Example 175], for which the EC50 at TLR8 and on TLR7 was less than 0.05 nM in each case. Moreover, in data set [3], the “Predicted Clearance” value is 4.33 mL/min/kg. For the same compound, in data set [2], the solubility (kinetic) at 24 h is 21.1 µg/mL (≈ 41 µM).

On to `Cc1c(-c2[nH]c3sc([C@H]4C[C@@H]5C[C@H]4CN5CC(N)=O)c(C)c3c2C(C)C)cn2ncnc2c1C` [Example 183], for which the values for the EC50 at TLR8 and at TLR7 were 2.82 nM and 0.07 nM, respectively. For the same compound, in data set [3], the “Predicted Clearance” value is 10.7 mL/min/kg.

In the case of `Cc1c(-c2[nH]c3sc(C4CCN(CC(N)=O)CC4)cc3c2C(C)C)cn2ncnc2c1C` [Example 221], the EC50 on TLR8 is 3.2 nM; on TLR7 it was 0.99 nM. Further, the “Predicted Clearance” value in data set [3] is 2.67 mL/min/kg. The compound further yielded a kinetic solubility at 24 h in data set [2] of 1 µg/mL (≈ 2.22 µM).

Consider `Cc1c(-c2[nH]c3sc([C@@H]4C[C@@H]5C[C@H]4CN5CCO)c(C)c3c2C(C)C)cn2ncnc2c1C` [Example 229], for which the EC50 at TLR8 was 0.35 nM; at TLR7, 0.06 nM. Also, the “Predicted Clearance” value in data set [3] was 3.67 mL/min/kg. In addition, the solubility (kinetic) at 24 h in data set [2] is 27.7 µg/mL (≈ 59.7 µM).

For `Cc1c(-c2[nH]c3sc(C4CCN(C(=O)[C@H]5C[C@@]6(CN(C)CCO6)C5)CC4)c(C)c3c2C(C)C)cn2ncnc2c1C` [Example 296, [4-[5-(7,8-dimethyl-[1,2,4]triazolo[1,5-a]pyridin-6-yl)-4-isopropyl-3-methyl-6H-thieno[2,3-b]pyrrol-2-yl]-1-piperidyl]-(8-methyl-5-oxa-8-azaspiro[3.5]nonan-2-yl)methanone], the EC50 is 8.94 nM at TLR8 and less than 0.05 nM at TLR7.

Regarding `Cc1c(-c2[nH]c3sc([C@@H]4C[C@@H]5C[C@H]4CN5C4CC5(CCNC5=O)C4)c(C)c3c2C(C)C)cn2ncnc2c1C` (some centres unmarked) [Example 297], the EC50 on TLR8 is 0.61 nM; at TLR7, less than 0.05 nM.

For `Cc1c(-c2[nH]c3sc(C4CCN(C(=O)[C@H]5C[C@@]6(CN(CC(F)F)CCO6)C5)CC4)c(C)c3c2C(C)C)cn2ncnc2c1C` [Example 298, [8-(2,2-difluoroethyl)-5-oxa-8-azaspiro[3.5]nonan-2-yl]-[4-[5-(7,8-dimethyl-[1,2,4]triazolo[1,5-a]pyridin-6-yl)-4-isopropyl-3-methyl-6H-thieno[2,3-b]pyrrol-2-yl]-1-piperidyl]methanone], the results for the EC50 on TLR8 and at TLR7 were 12.2 nM and less than 0.05 nM, respectively.

Take `Cc1c(-c2[nH]c3sc(C4CCC(N5CC6(CCNC6=O)C5)CC4)c(C)c3c2C(C)C)cn2ncnc2c1C` (centres unmarked) [Example 299, 2-[4-[5-(7,8-dimethyl-[1,2,4]triazolo[1,5-a]pyridin-6-yl)-4-isopropyl-3-methyl-6H-thieno[2,3-b]pyrrol-2-yl]cyclohexyl]-2,6-diazaspiro[3.4]octan-5-one]: the figures for the EC50 on TLR8 and at TLR7 were 2.17 nM and 0.1 nM, respectively.

Turning to `Cc1c(-c2[nH]c3sc(C4CCC(N5CC6(CCO6)C5)CC4)c(C)c3c2C(C)C)cn2ncnc2c1C` (centres unmarked) [Example 300], the EC50 on TLR8 was 1.85 nM; on TLR7, 0.22 nM.

Consider `Cc1c(-c2[nH]c3sc(C4CCC(N5CC6(C5)CS(=O)(=O)C6)CC4)c(C)c3c2C(C)C)cn2ncnc2c1C` (centres unmarked) [Example 301], for which the 50% effective concentration (EC50) at TLR8 came out at 5.66 nM; on TLR7 it was 0.13 nM.

Turning to `Cc1c(-c2[nH]c3sc(C4CCC(N5CC[C@H](F)C5)CC4)c(C)c3c2C(C)C)cn2ncnc2c1C` (some centres unmarked) [Example 302], the EC50 at TLR8 amounted to 6.4 nM; on TLR7, 0.1 nM.

As for `Cc1c(-c2[nH]c3sc(C4CCC(N5CC[C@@H](F)C5)CC4)c(C)c3c2C(C)C)cn2ncnc2c1C` (some centres unmarked) [Example 303], the EC50 was 2.77 nM at TLR8 and less than 0.05 nM at TLR7.

Take `Cc1c(-c2[nH]c3sc(C4CCC(N5CC(C)(O)C5)CC4)c(C)c3c2C(C)C)cn2ncnc2c1C` (centres unmarked) [Example 304]: the EC50 is 1.76 nM at TLR8 and less than 0.05 nM on TLR7.

For `Cc1c(-c2[nH]c3sc([C@@H]4C[C@@H]5C[C@H]4CN5CCS(=O)(=O)CCO)c(C)c3c2C(C)C)cn2ncnc2c1C` [Example 307, 2-((2-((1S,4R,5R)-5-(5-(7,8-dimethyl-[1,2,4]triazolo[1,5-a]pyridin-6-yl)-4 isopropyl-3-methyl-6H-thieno[2,3-b]pyrrol-2-yl)-2-azabicyclo[2.2.1]heptan-2-yl)ethyl)sulfonyl)ethan-1-ol], the EC50 at TLR8 came to 0.25 nM; on TLR7, 0.21 nM.

With `Cc1c(-c2[nH]c3sc([C@@H]4C[C@@H]5C[C@H]4CN5C(CO)CO)c(C)c3c2C(C)C)cn2ncnc2c1C` [Example 308, 2-((1S,4R,5R)-5-(5-(7,8-dimethyl-[1,2,4]triazolo[1,5-a]pyridin-6-yl)-4 isopropyl-3-methyl-6H-thieno[2,3-b]pyrrol-2-yl)-2-azabicyclo[2.2.1]heptan-2-yl)propane-1,3-diol], the EC50 is 1.16 nM at TLR8 and less than 0.05 nM on TLR7.

Turning to `Cc1c(-c2[nH]c3sc(C4CCC(C(=O)N5CCNCC5)CC4)c(C)c3c2C(C)C)cn2ncnc2c1C` (centres unmarked) [Example 309, (4-(5-(7,8-dimethyl-[1,2,4]triazolo[1,5-a]pyridin-6-yl)-4-isopropyl-3-methyl-6H-thieno[2,3-b]pyrrol-2-yl)cyclohexyl)(piperazin-1-yl)methanone], the EC50 at TLR8 was 8.07 nM; at TLR7, 0.14 nM.

Consider `Cc1c(C2CCC(C(=O)N3CCNCC3)CC2)sc2[nH]c(-c3cc(C)c4ncnn4c3)c(C(C)C)c12` (centres unmarked) [Example 310], for which the EC50 at TLR8 stood at 9.94 nM; on TLR7, 0.25 nM.

Turning to `Cc1c(-c2[nH]c3ccc(C4CCN(CC(N)=O)CC4)cc3c2C(C)C)cn2ncnc2c1C` [Example A-1, reference compound], in data set [1] (setting [4]), the IC50 amounted to 300 nM. Also, the “Predicted Clearance” value in data set [3] is 4.5 mL/min/kg. In data set [2], this compound registered a kinetic solubility at 24 h of less than 1 µg/mL.

The values above are taken from patent US11661431B2, “Thienopyrrole compounds” (Gilead Sciences, Inc., priority 2021, dated 2023).
